{
  "source": "patent US4866066A",
  "about": "“Thiomethylpyridine derivatives and their use for eliciting a bronchosecretolytic or mucolytic response” (Ludwig Heumann & Co. GmbH, priority 1982, dated 1989)",
  "key": {"[1]": {"test_system": "tracheal secretion of phenol red", "assay": "Secretostimulating activity: tracheal secretion of phenol red after oral administration to non-anaesthetized mice", "format": "in vivo", "settings": "for ED50: Table I, non-anaesthetized mice, promotion of tracheal phenol red secretion, calculated from regression curves", "procedure": "The increase in the tracheal secretion of phenol red is a measure of bronchosecretolytic activity. The relevant activity of the test substances was studied after oral administration to non-anaesthetized mice. The ED50 -values indicated in Table I were calculated using the regression curves."}, "bronchial mucus": {"test_system": "bronchial mucus", "assay": "Mucosecretolytic activity in dogs: viscosity of bronchial mucus after i.v. administration", "format": "in vivo, mongrel dogs", "settings": "for Viscosity, 1 hour after administration: 1 hour after 10 mg/kg i.v.; for Viscosity, 1 hour after administration / Viscosity, initial value: mucus 1% w/v in 0.1M tris-buffer pH 7; for reduction in the viscosity of the bronchial mucus (in words): i.v., dogs, identical quantity by weight; for Viscosity, initial value: immediately before administration, 10 mg/kg i.v., baseline", "procedure": "Bronchial mucus was removed by means of a bronchoscope from anaesthetized mongrel dogs immediately before and 1 hour after intravenous administration of the test substances and taken up in phosphate buffer. After dialyzation and freeze-drying, the mucus samples were taken up in 0.1M tris-buffer (pH 7) (final concentration 1% w/v). Viscosity was measured by means of a rotary viscosimeter (as manufactured by Contraves, Stuttgart)."}, "mice": {"test_system": "mice", "settings": "p.o., under identical conditions; cited from earlier work"}, "[2]": {"assay": "Acute oral toxicity in mice", "settings": "mouse, in vivo, p.o.", "source_text": "The compounds according to the invention show low oral toxicity in acute tests."}},
  "note": "Structures can show the parent of a compound that is named as a salt. Where two headings read alike, the source gives them in different places.",
  "data": [
    {"compound": "2-(methylthio-3-pyridyl)-oxazolo(4,5-c) pyridine dihydrochloride [Example 10]", "values": [
      {"measurement": "ED50", "setting": "[1]", "value": 12, "unit": "mg/kg"}
    ]},
    {"compound": "Nc1c(Br)cc(Br)cc1CN[C@H]1CC[C@H](O)CC1", "note": "[Ambroxol, trans-4-(2-amino-3,5-dibromobenzyl)-aminocyclohexanol, reference compound]", "values": [
      {"measurement": "Viscosity, 1 hour after administration", "setting": "bronchial mucus", "value": 2.3, "unit": "mPa × s"},
      {"measurement": "reduction in the viscosity of the bronchial mucus (in words)", "setting": "bronchial mucus", "value": "distinct reduction in the viscosity of the bronchial mucus"},
      {"measurement": "Viscosity, initial value", "setting": "bronchial mucus", "value": 3.8, "unit": "mPa × s"},
      {"measurement": "toxicity compared with 2-(pyridyl-3-methylthio)-pyrimidine hydrochloride (in words)", "setting": "mice", "value": "slidingly less toxic"},
      {"measurement": "ED50", "setting": "[1]; Mus musculus, read-out: ED50", "value": 250, "unit": "mg/kg"}
    ]},
    {"compound": "c1cnc(SCc2cccnc2)nc1", "note": "[Example 1, 2-(pyridyl-3-methylthio)-pyrimidine hydrochloride]", "values": [
      {"measurement": "Viscosity, 1 hour after administration", "setting": "bronchial mucus", "value": 1.2, "unit": "mPa × s"},
      {"measurement": "reduction in the viscosity of the bronchial mucus (in words)", "setting": "bronchial mucus", "value": "even more distinct reduction in the viscosity of the bronchial mucus"},
      {"measurement": "Viscosity, initial value", "setting": "bronchial mucus", "value": 3.9, "unit": "mPa × s"},
      {"measurement": "LD50", "setting": "[2]", "value": 1160, "unit": "mg/kg"},
      {"measurement": "ED50", "setting": "[1]; Mus musculus, read-out: ED50", "value": 1.5, "unit": "mg/kg"},
      {"measurement": "activity in promoting tracheal secretion of phenol red (in words)", "setting": "[1]; mice, among compounds of Table I", "value": "strongest activity"},
      {"measurement": "effect in promoting the secretion of phenol red relative to Ambroxol", "setting": "[1]; mice, times stronger than Ambroxol", "value": "approximately 160 times"}
    ]},
    {"compound": "c1ccc(CSc2ncccn2)nc1", "note": "[Example 2, 2-(pyridyl-2-methylthio)-pyrimidine hydrochloride]", "values": [
      {"measurement": "ED50", "setting": "[1]; Mus musculus, read-out: ED50", "value": 400, "unit": "mg/kg"}
    ]},
    {"compound": "Cc1ccnc(SCc2cccnc2)n1", "note": "[Example 3, 2-(pyridyl-3-methylthio)-4-methyl-pyrimidine hydrochloride]", "values": [
      {"measurement": "ED50", "setting": "[1]; Mus musculus, read-out: ED50", "value": 10, "unit": "mg/kg"}
    ]},
    {"compound": "Cc1cc(C)nc(SCc2cccnc2)n1", "note": "[Example 4, 2-(pyridyl-3-methylthio)-4,6-dimethyl-pyrimidine hydrochloride]", "values": [
      {"measurement": "ED50", "setting": "[1]; Mus musculus, read-out: ED50", "value": 12, "unit": "mg/kg"}
    ]},
    {"compound": "c1ccc(SCc2cccnc2)nc1", "note": "[Example 5, 2-(pyridyl-3-methylthio)-pyridine dihydrochloride]", "values": [
      {"measurement": "ED50", "setting": "[1]; Mus musculus, read-out: ED50", "value": 2.1, "unit": "mg/kg"}
    ]},
    {"compound": "c1ccc(CSc2ccccn2)nc1", "note": "[Example 6, 2-(pyridyl-2-methylthio)-pyridine dihydrochloride]", "values": [
      {"measurement": "ED50", "setting": "[1]; Mus musculus, read-out: ED50", "value": 6.3, "unit": "mg/kg"}
    ]},
    {"compound": "c1cncc(CSc2nc3ccccc3o2)c1", "note": "[Example 7]", "values": [
      {"measurement": "ED50", "setting": "[1]; Mus musculus, read-out: ED50", "value": 15, "unit": "mg/kg"}
    ]},
    {"compound": "Cc1ccc2nc(SCc3cccnc3)oc2c1", "note": "[Example 8, hydrochloride]", "values": [
      {"measurement": "ED50", "setting": "[1]; Mus musculus, read-out: ED50", "value": 15, "unit": "mg/kg"}
    ]},
    {"compound": "c1ccc(CSc2nc3ccccc3o2)nc1", "note": "[Example 9, 2-(methylthio-2-pyridyl)-benzoxazole oxalate]", "values": [
      {"measurement": "ED50", "setting": "[1]; Mus musculus, read-out: ED50", "value": 45, "unit": "mg/kg"}
    ]}
  ]
}
